One series addresses T1, recombinant BTK (Mus musculus, UniProt P35991).
T1 construct: made in house; host or cells: Insect cells (Sf21, IPLB-SF21-AE) with recombinant baculovirus from pFastBac1-BTK
Put plainly: Recombinant BTK immune-complex kinase assay (baculovirus vector expression system). Format: biochemical, murine. To be noted: for inhibition of recombinant BTK, concentration dependence: BTK expressed in a baculovirus vector expression system; for IC50: recombinant BTK, kinase assay (Table 1). On the procedure: The effects of calanolides on the enzymatic activity of the tyrosine kinase BTK in kinase assays was evaluated using recombinant BTK, according to the methods previously reported (Mahajan et al., 1999, J Biol. Chem., 274:9587-9599).
Sf21 (IPLB-SF21-AE) cells, derived from the ovarian tissue of the fall armyworm Spodotera frugiperda, were obtained from Invitrogen and maintained at 26-28° C. in Grace's insect cell medium supplemented with 10% FBS and 1.0% antibiotic/antimycotic (GIBCO-BRL). Stock cells were maintained in suspension at 0.2-1.6×10^6 /ml in 600 ml total culture volume in 1 L Bellco spinner flasks at 60-90 rpm. Cell viability was maintained at 95-100% as determined by trypan blue dye exclusion.
To construct the recombinant baculovirus containing the murine BTK gene, the gene encoding BTK was excised from pBluescript SKII^+ vector (Stratagene) by digestion with BamHI. This fragment was then ligated into pFastBac1 (Gibco-BRL). The resulting vector, pFastBac1-BTK, was used to generate the recombinant baculovirus by site-specific transposition in E. coli DH10Bac cells (Gibco-BRL), which harbor a baculovirus shuttle vector (bacmid), bMON14272. The resulting recombinant bacmid DNA was introduced into insect cells by transfection with the standard liposome-mediated method using Cellfectin reagent (Gibco-BRL). Four days later, transfection supernatants were harvested for subsequent plaque purification and analyzed.
Immunoprecipitations, immune-complex protein kinase assays, and immunoblotting using the ECL chemiluminescence detection system (Amersham Life Sciences) were conducted as described previously (Mahajan et al., 1999, J. Biol. Chem., 274:9587-9599). Following electrophoresis, kinase gels were dried onto Whatman 3M filter paper and subjected to phosphoimaging on a Molecular Imager (Bio-Rad, Hercules, Calif.) as well as autoradiography on film. Similarly, all chemiluminescent BTK Western blots were subjected to three dimesional densitometric scanning using the Molecular Imager and Imaging Densitometer using the Molecular Analyst/Macontosh version 2.1 software following the specifications of the manufacturer (Bio-Rad). For each drug concentration, a BTK kinase activity index was determined by comparing the ratios of the kinase activity in phosphorimager units (PIU) and density of the protein bands in densitometric scanning units (DSU) to those of the baseline sample and using the formula: Activity Index=[PIU of kinase band/DSU of BTK protein band]test sample :[PIU of kinase band/DSU of BTK protein band]baseline control sample. Horse radish peroxidase-conjugated sheep anti-mouse, donkey anti-rabbit secondary antibodies and ECL reagents were purchased from Amersham (Oakbrook, Ill.).

The next series has as its system BALB/c mice. Put plainly: Passive cutaneous anaphylaxis in mice (Evans blue dye extravasation). Format: in vivo. As to the method: In order to examine the effect of HI-D12 on passive cutaneous anaphylaxis in mice, dorsal sides of the ears of BALB/c mice were injected intradermally with 20 ng of DNP-IgE (left ears) or PBS (right ears) in 20 μL volume using a 30-gauge needle, as previously described (Miyajima et. al., 1997, J. Clin. Invest. 99:901-914). After 20 hours, mice were treated with compound HI-D12 (15 or 50 mg/kg i.p.) twice at 1 hour intervals prior to the antigen challenge. Control mice were treated with an equal volume of vehicle. Thirty minutes after the last dose of compound HI-D12 or vehicle, mice were challenged with 100 μg antigen (DNP-BSA) in 200 μl 2% Evans blue dye intravenously. Mice were sacrificed by cervical dislocation 30 minutes after the antigen challenge. For quantitation of Evans blue dye extravasation as a measure of anaphylaxis-associated vascular hyperpermeability, 8 mm skin specimens were removed from the ears of mice, minced in 2 ml formamide and incubated at 80° C. for 2 hours in water bath to extract the dye. The absorbance was read at […]. The data were expressed as plasma exudation indices (i.e., times increase in optical density over PBS treated ears at 620 nm).

For series [1], the system named is RBL-2H3 mast cells. Put plainly: Leukotriene C4 release from IgE/antigen stimulated RBL-2H3 mast cells (LTC4 ELISA). Format: cell-based. The settings on record: 1 hour preincubation, IgE/DNP-BSA challenge 30 minutes. As to the method:
(§1) RBL-2H3 cells were sensitized with monoclonal anti-DNP IgE antibody (0.24 mg/ml) for 1 hour at 37° C. in a 48-well tissue culture plate. RBL-2H3 cells were allowed to adhere to the plate, whereas bone marrow mast cells (BMMC) were used in suspension. Unbound IgE was removed by washing the cells with phosphate buffered saline. After washing the BMMC were re-suspended in RPMI-hepes buffer. PIPES-buffered saline containing 1 mM calcium chloride was added to the monolayers of the RBL-2H3 cells.
(§2) To study the effects of compound HI-D12, mast cells were incubated with compound HI-D12 at the indicated concentrations or vehicle for 1 hour prior to challenge. The cells were challenged with 20 ng/ml DNP-BSA for 30 minutes at 37° C. The plate was then centrifuged at 200 g for 10 minutes at 4° C. Supernatants were removed and saved. RBL-2H3 cell pellets were washed with phosphate buffered saline and solubilized in PIPES buffered saline containing 0.1% Triton X-100.
(§3) Leukotriene (LT) C4 levels were estimated in cell free supernatants by immunoassay using (LT) C4 ELISA kits obtained from Cayman Company (Ann Arbor, Mich.), according to the manufacturer instructions. β-hexosaminidase release was estimated in cell free supernatants and Triton X-100 solubilized pellets, using the method described in Ozawa et al, 1993, J. Biol. Chem., 268:1749-1756.
In general terms: In an ELISA, binding on a coated surface is turned into a signal by an enzyme label.

Series [2] relates to RBL-2H3 mast cells. Put plainly: β-hexosaminidase release from IgE/antigen stimulated RBL-2H3 mast cells. To be noted: 1 hour preincubation, IgE/DNP-BSA challenge 30 minutes. It is filed as cell-based. On the procedure: as §1, §2, §3

T1 sequence (P35991 whole entry): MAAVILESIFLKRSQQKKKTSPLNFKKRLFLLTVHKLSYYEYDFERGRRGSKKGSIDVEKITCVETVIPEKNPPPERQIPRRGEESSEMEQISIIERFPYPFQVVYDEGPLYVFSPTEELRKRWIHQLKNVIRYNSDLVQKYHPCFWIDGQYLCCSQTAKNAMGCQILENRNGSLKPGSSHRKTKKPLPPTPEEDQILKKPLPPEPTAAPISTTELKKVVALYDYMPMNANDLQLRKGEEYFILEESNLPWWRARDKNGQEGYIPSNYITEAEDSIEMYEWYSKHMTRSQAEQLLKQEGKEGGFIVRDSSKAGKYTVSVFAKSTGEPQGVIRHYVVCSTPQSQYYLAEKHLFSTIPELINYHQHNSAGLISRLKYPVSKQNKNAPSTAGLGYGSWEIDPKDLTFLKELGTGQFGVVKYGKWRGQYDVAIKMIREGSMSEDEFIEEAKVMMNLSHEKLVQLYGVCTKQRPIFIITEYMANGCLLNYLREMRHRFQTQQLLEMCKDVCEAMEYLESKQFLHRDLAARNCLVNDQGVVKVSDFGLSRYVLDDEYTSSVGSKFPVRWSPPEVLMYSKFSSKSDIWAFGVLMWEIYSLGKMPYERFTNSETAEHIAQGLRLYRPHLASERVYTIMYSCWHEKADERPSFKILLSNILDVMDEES

For `CCCc1cc(=O)oc2c3c(c4c(c12)OC(C)(C)C=C4)O[C@H](C)[C@@H](C)[C@@H]3O` (relative stereo) [HI-D63, (±)-Calanolide A], at recombinant BTK, the “inhibition of recombinant BTK, concentration dependence” value (“inhibition of recombinant BTK” for short) is recorded as “in a concentration-dependent fashion” and the IC50 is 130 µM.

Turning to `CCCc1cc(=O)oc2c3c(c4c(c12)OC(C)(C)C=C4)O[C@H](C)[C@@H](C)C3=O` (relative stereo) [HI-D86, 10,11-trans-Dihydro-6,6,10,11-tetramethyl-4-propyl-2H,6H,12H-benzo[2-b: 3,4-b':5,6-b"]tripyran-2,12-dione], on recombinant BTK, the “inhibition of recombinant BTK” value is recorded as “in a concentration-dependent fashion” and the IC50 amounted to 110 µM.

Turning to `CCCc1cc(=O)oc2c(C(=O)CC)c(O)c3c(c12)OC(C)(C)C=C3` [HI-D12, 6,6 Dimethyl-9-hydroxy-10-propionyl-4-propyl-2H,6H-benzo[1,2-b: 3,4-b']dipyran-2-one], the “tolerability of dose level” value in the series with BALB/c mice (50 mg/kg dose level) is “nontoxic”. The “inhibition of IgE/antigen induced plasma exudation” value with BALB/c mice (50 mg/kg i.p., twice prior to antigen challenge) was 70%. In addition, the “inhibition of LTC4 release” value in the series with RBL-2H3 mast cells [1] is “inhibited the release of the newly synthesized arachidonic acid metabolite LTC4 in a concentration-dependent fashion”. At recombinant BTK, the “inhibition of recombinant BTK” value was “in a concentration-dependent fashion” and the IC50 amounted to 29 µM. The “effect on release of preformed granule-associated β-hexosaminidase” value in the series on RBL-2H3 mast cells [2] is recorded as “did not prevent the release of preformed granule-associated β-hexosaminidase”.

One may read the IC50 as the concentration needed to halve the response being measured.

The record behind these values is patent US6306897A, “Calanolides for inhibiting BTK” (Parker Hughes Institute, priority 1999, dated 2001).
